Earlier results as cited in publication PMC9683570.
Where a name gives a salt, the structure may show the parent alone. Read-outs that look alike come from different tables or passages of the source. Blank lines part the entries; values can stand above or below the compound they belong to.

Key:
L-type Ca2+ current [1] = system: L-type Ca2+ current; set-up: method as in PMID 19367686; conditions: 20–25 °C, 10 Ca2+
[2] = system: CaV1.2, α2δ, β2a along with Kir2.3; conditions: 30 Ba2+
CaV1.2, α2δ, β2a [3] = conditions: 22–25 °C, 20 Ba2+
L-type Ca2+ current [4] = conditions: RT (22–25 °C), 2 Ca2+
hCaV1.2, β2, α2δ = conditions: ambient, 1.8 Ca2+
CaV1.2, α2δ, β2a [5] = conditions: ~25 °C
[6] = system: CaVAb (voltage-dependent Ca2+-selective channel); conditions: 13 Ba2+
CaV1.2, α2δ, β1b = conditions: read-out: IC50 (± SE); RT, 10 Ba2+
[7] = system: hCaV1.2α, β2, α2δ1 subunits; set-up: method as in PMID 30151907; conditions: IonWorks Barracuda, ambient temperature, […] Ca2+, current at 0 mV step, 10 s interval, rundown adjusted; read-out: IC50 (Li et al. 2018)
[8] = set-up: method as in DrugBank; conditions: predicted, based on ChemAxon; ref DrugBank
NaV1.5 channels = conditions: similar concentrations as tested on CaV1.2
Ca2+ current (L-type) = conditions: peak current inhibited less potently than late current at end of step depolarization
hCav1.2 = system: hCav1.2; set-up: method as in PMID 23651875; conditions: RT
L-type Ca2+ channels = system: L-type Ca2+ channels; set-up: method as in PMID 17909749; conditions: from 22°C to 37°C

SMILES: COc1ccc([C@@H]2Sc3ccccc3N(CCN(C)C)C(=O)[C@@H]2OC(C)=O)cc1 [Diltiazem, diltiazem hydrochloride]
- IC50 (L-type Ca2+ current [1]): 30 µM
- IC50 ([2]; read-out: IC50 (automated), PatchXpress 7000A, 22–26 °C): 36 µM
- IC50 ([2]; read-out: IC50 (manual), manual, 20–25 °C): 44 µM
- IC50 (CaV1.2, α2δ, β2a [3]): 85 ± 9 µM
- nH (L-type Ca2+ current [4]): 0.77
- IC50 (L-type Ca2+ current [4]; read-out: IC50 (± SE)): 0.63 ± 0.05 µM
- IC50 (hCaV1.2, β2, α2δ): 0.76 ± 0.08 µM
- nH (± SE) (hCaV1.2, β2, α2δ): 1.14 ± 0.15
- IC50 (CaV1.2, α2δ, β2a [5]; 5 mM Ba2+, read-out: IC50 (± SE) (Ba2+) (converted)): 109 µM
- IC50 (CaV1.2, α2δ, β2a [5]; 1.8 Ca2+, read-out: IC50 (± SE) (Ca2+)): 250 ± 16 µM
- IC50 ([6]; 20 ms single pulse from -120 mV, read-out: IC50, resting state block): 41 µM
- IC50 ([6]; 20 pulses at 1 Hz from -120 mV, read-out: IC50, use-dependent block): 10.4 µM
- IC50 (CaV1.2, α2δ, β1b): 65 ± 13 µM
- IC50 [7]: 31.6 µM

- Log P [8]: 6.48
SMILES: CC(C)(C)c1ccc(C(O)CCCN2CCC(C(O)(c3ccccc3)c3ccccc3)CC2)cc1 (stereo not drawn) [Terfenadine]

- Log P [8]: 5.49
SMILES: CC(C)COCC(CN(Cc1ccccc1)c1ccccc1)N1CCCC1 (stereo not drawn) [Bepridil]
- IC50 [7]: 638 µM

- Log P [8]: 4.54
SMILES: CN(C)CCCN1c2ccccc2Sc2ccc(Cl)cc21 [Chlorpromazine]
- IC50 [7]: 6.35 µM

SMILES: O=C1CC[C@@]2(O)[C@H]3Cc4ccc(O)c5c4[C@@]2(CCN3CC2CC2)[C@H]1O5 [Naltrexone, naltrexone hydrochloride]
- nH on the peak and the late current (NaV1.5 channels): ≥ 0.8

- difference in the IC50s, peak vs late Ca2+ current (Ca2+ current (L-type)): 13.1 X
SMILES: COCCOC(=O)C1=C(C)NC(C)=C(C(=O)OC(C)C)C1c1cccc([N+](=O)[O-])c1 (stereo not drawn) [nimodipine]

SMILES: COc1ccc(CCN(C)CCCC(C#N)(c2ccc(OC)c(OC)c2)C(C)C)cc1OC (racemic) [Verapamil, (±)-verapamil hydrochloride]
- IC50 (L-type Ca2+ current [1]): 0.79 µM

- Log P [8]: 2.35
SMILES: Cc1nccn1CC1CCc2c(c3ccccc3n2C)C1=O (stereo not drawn) [Ondansetron]
- IC50 [7]: 9310 µM

SMILES: COC(=O)C1=C(C)NC(C)=C(C(=O)OC)C1c1ccccc1[N+](=O)[O-] [nifedipine]
- increase in block potency on raising the recording temperature (L-type Ca2+ channels): 7 X

SMILES: Cc1c(-c2ccccc2)oc2c(C(=O)OCCN3CCCCC3)cccc2c1=O [flavoxate]
- increase in block potency on raising the recording temperature (L-type Ca2+ channels): 2.2 X

SMILES: C=CCN1CC[C@]23c4c5ccc(O)c4O[C@H]2C(=O)CC[C@@]3(O)[C@H]1C5 [Naloxone, Naloxone hydrochloride]
- nH on the peak and the late current (NaV1.5 channels): ≥ 0.8
